Experimental data published in patent publication US20240254117A1, “PYRIMIDO-HETEROCYCLIC COMPOUNDS, AND PREPARATION METHOD THEREFOR AND USE THEREOF” (SHANGHAI RINGENE BIOPHARMA CO., LTD., priority 2020, published 2024).
Where two headings read alike, the source gives them in different places.

Tested on: pERK
Assay: p-ERK level in PC9 cells (AlphaLISA SureFire Ultra p-ERK1/2)
Assay type: cell-based
Settings: Homo sapiens, read-out: SOS1 pERK IC50
Experimental: PC9 cells were seeded in 384-well cell culture plate (40 μL/well) according to a certain concentration and placed in a cell culture incubator with 37° C. and 5% CO2 overnight. On the next day, the plate was added with serially diluted test compounds (5 concentrations, 3-fold dilution, the highest concentration was 10 uM) for 1 hour, and then the lysate containing protease and phosphatase inhibitor was added to lyse the cells-extracted proteins, cellular pERK levels were measured using the AlphaLISASureFire Ultra p ERK1/2 assay kit (PerkinElmer). The standard AlphaLISA settings on the Envision plate reader (PerkinElmer) was used to read the signal. Raw data were analyzed in Excel (Microsoft) and Prism (GraphPad). The signal was plotted against the common logarithm of compound concentration and IC50 was calculated by fitting a four parameter non-linear regression curve.

[1] = PC-9, PC9 cells, 1 hour compound treatment

Question: How did the IC50 [1] turn out when `COC1(c2cc3c(N[C@H](C)c4cc(N)cc(C(F)(F)F)c4)nc(C)nc3n3ccnc23)CCOCC1` [Example 75] was run?
Answer: Its IC50 is under 1000 nM.

Question: `COC1(c2cc3c(N[C@H](C)c4cc(N)cc(C(F)(F)F)c4)nc(C)nc3n3ccnc23)CCN(C(C)=O)CC1` [Example 76] was tested. Which IC50 [1] did it give?
Answer: Its IC50 is under 1000 nM.

Question: `COC1(c2cc3c(N[C@H](C)c4cc(N)cc(C(F)(F)F)c4)nc(C)nc3n3ccnc23)CCS(=O)(=O)CC1` [Example 77] was tested. Which IC50 [1] did it give?
Answer: The IC50 was under 1000 nM.

Question: For `Cc1nc(N[C@H](C)c2cc(N)cc(C(F)(F)F)c2)c2cc(C3(C#N)CCS(=O)(=O)CC3)c3nccn3c2n1` [Example 78], which IC50 [1] is on record?
Answer: Its IC50 is under 1000 nM.

Question: `COC1(c2cc3c(N[C@H](C)c4cccc(C(F)(F)F)c4C)nc(C)nc3n3ccnc23)CCOCC1` [Example 79] was tested. Which IC50 [1] did it give?
Answer: The IC50 was under 1000 nM.

Question: `Cc1nc(N[C@H](C)c2cccc(C(F)(F)F)c2C)c2cc(C3(C#N)CCS(=O)(=O)CC3)c3nccn3c2n1` [Example 80] was tested. Which IC50 [1] did it give?
Answer: The IC50 was under 1000 nM.

Question: With `COC1(c2cc3c(N[C@H](C)c4cccc(C(F)(F)F)c4C)nc(C)nc3n3ccnc23)CCN(C(C)C)CC1` [Example 81] as the molecule, how does the IC50 [1] read?
Answer: Its IC50 is under 1000 nM.

Question: With `CC(=O)N1CCC(O)(c2cc3c(N[C@H](C)c4cc(N)cc(C(F)(F)F)c4)nc(C)nc3n3ccnc23)CC1` [Example 85, (R)-1-(4-(4-((1-(3-amino-5-(trifluoromethyl)phenyl)ethyl)amino)-2-methylimidazole [1′,2′:1,6]pyrido [2,3-d]pyrimidin-6-yl)-4-hydroxypiperidin-1-yl) ethyl-1-one] as the molecule, how does the IC50 (PC-9, 1 h) read?
Answer: Its IC50 is under 1000 nM.

Question: How did the IC50 [1] turn out when `COC1(c2cc3c(N[C@H](C)c4cc(N)cc(C(F)(F)F)c4)nc(C)nc3n3ccnc23)CCN(C(=O)C(C)C)CC1` [Example 89] was run?
Answer: The IC50 was under 1000 nM.

Question: With `Cc1nc(N[C@H](C)c2cc(N)cc(C(F)(F)F)c2)c2cc(C3(C#N)CCN(C(=O)C(C)C)CC3)c3nccn3c2n1` [Example 90] as the molecule, how does the IC50 [1] read?
Answer: The IC50 was under 1000 nM.

Question: With `COC1(c2cc3c(N[C@H](C)c4cc(N)cc(C(F)(F)F)c4)nc(C)nc3n3ccnc23)CC2CCC(C1)N2C(=O)C(C)C` (stereo partly shown) [Example 91] as the molecule, how does the IC50 (PC-9, 1 h) read?
Answer: Its IC50 is under 1000 nM.

Question: Which IC50 (PC-9, 1 h) does the source give for `COC1(c2cc3c(N[C@H](C)c4cc(N)cc(C(F)(F)F)c4)nc(C)nc3n3ccnc23)CC2CCC(C1)N2C` (stereo partly shown) [Example 92] here?
Answer: The IC50 was under 1000 nM.

Question: How did the IC50 (PC-9, 1 h) turn out when `COC1(c2cc3c(N[C@H](C)c4cc(N)cc(C(F)(F)F)c4)nc(C)nc3n3ccnc23)CC2CCC(C1)N2C(C)C` (stereo partly shown) [Example 93] was run?
Answer: The IC50 was under 1000 nM.
